The source of these data is patent US10071080B2, “MIF inhibitors for the acute or chronic treatment of pulmonary hypertension” (MIFCARE, priority 2014, dated 2018).

One data set addresses T1, recombinant human MIF (Homo sapiens, UniProt P14174).
T1 construct: purchased RayBiotech
T1 sequence (P14174 2-115 limits assumed): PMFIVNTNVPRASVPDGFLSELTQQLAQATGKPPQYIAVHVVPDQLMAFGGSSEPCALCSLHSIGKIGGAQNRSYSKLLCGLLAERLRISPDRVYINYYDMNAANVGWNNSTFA
Kind of data set: MIF tautomerase assay using 4-hydroxyphenylpyruvate (4-HPP). Type of data set: biochemical. To be noted: for inhibition at 0.001 µM: compounds at 1 nM, substrate 4-HPP, compared to positive control with rhMIF alone. The method, then: Tautomerase activity was assessed using 4-hydroxyphenylpyruvate (4-HPP) as substrate. 4-HPP was dissolved in 50 mM ammonium acetate at pH 6.0, allowed to equilibrate to room temperature and stored at −20° C. 300 ng/mL of recombinant human MIF (rhMIF; RayBiotech, Le Perray en Yvelines, France) and tested compounds were pre-incubated at room temperature for 15 min. Tautomerase activity was assessed at room temperature, by adding 4-HHP to a 96-well plate containing 0.435 M boric acid at pH 6.6 and rhMIF with or without (positive control) tested compounds (1 nM), and by measuring the increase in absorbance at 320 nm over 10-360 s using the 2103 EnVision™ Multilabel Plate Readers (PerkinElmer, Villebon-sur-Yvette, France). Compounds were tested at 1 nM. The assay was replicated 3 to 6 times independently.

The next data set concerns MCT-injected rats. Kind of data set: Rodent model of pulmonary hypertension (monocrotaline). Type of data set: in vivo. Particulars: for mean pulmonary arterial pressure (mPAP): 2 weeks; for degree of established PH: started one week after MCT. The method, then:
Animal studies were approved by the administrative panel on animal care at the Univ. Paris-Sud, Le Plessis-Robinson, France. Young male Wistar rats (100 g, Janvier Labs, France) were studied 3 weeks after a single subcutaneous injection of monocrotaline (60 mg/kg) (Sigma-Aldrich, Saint-Quentin Fallavier, France), or vehicle. One week after a single subcutaneous injection of monocrotaline (MCT), rats were randomly divided into several groups and treated for 2 weeks with • (example 3) daily intraperitoneal injections of ISO-1, compound 1 of the invention (M3), M41, or vehicle (vehicle A: 50% (v/v) DMSO (Dimethyl sulfoxide) in normal saline for i.v. administrations) at a dose of 10 mg·kg^−1·day^−1; or • (example 4) daily per os administration of compounds of the invention, or vehicle (vehicle B: 33% DMSO, 45% propylene glycol, 21% saline) at a dose of 30 mg·kg^−1·day^−1.
Animals were anesthetized with isoflurane. A polyvinyl catheter was introduced into the right jugular vein and pushed through the right ventricle into the pulmonary artery. Cardiac output in rat was measured using the thermodilution method. After measurement of hemodynamic parameters, the thorax was opened and the left lung immediately removed and frozen. The right lung was fixed in the distended state with formalin buffer. The right ventricular hypertrophy (RVH) index and the percentage of muscularized vessels were determined as previously described (Guignabert C 2009 J Faseb 23 (12): 4135-4147).

The test system of a further data set is DU-145 cell line. Kind of data set: MTT assay, cell proliferation and survival, DU-145. The format is cell-based. To be noted: 24 h, effect significantly superior compared to ISO-1 (p<0.05); for cell survival: 0% FCS, at 100 μM and 50 μM. The method, then:
(§1) P-ECs were isolated and cultured from lung specimens of patients with idiopathic pulmonary arterial hypertension (iPAH) as previously described (Tu et al., Am J Respir Cell Mol Biol. 2012). The isolated P-ECs were strongly positive for acetylated low-density lipoprotein coupled to Alexa 488 (Alexa488-Ac-LDL), von Willebrand factor (vWF), CD31, and for Ulex europaeus agglutinin-1 (UEA-1) and negative for alpha-smooth muscle actin (α-SMA). DU-145 cell lines and iPAH ECs were grown in MCDB131 medium (Fisher, Illkirch Cedex, France) supplemented with 10% fetal calf serum (FCS), penicillin-streptomycin solution, glutamine, HEPES and amphotericine.
(§2) To determine the impact of the compounds of the invention on the proliferation and the survival of DU-145 cell line and iPAH P-ECs, the methyl tetrazolium (MTT) assay was performed. To this aim, cells were plated in a 96-well plate and cultured in MCDB131 medium (Fisher, Illkirch Cedex, France) supplemented with 10% fetal calf serum (FCS) for 24 h. DU-145 and iPAH ECs monolayers were then washed and 50 or 100 μM of tested compounds were added with 0% (for cell survival assessment) or 10% (for cell proliferation assessment) of FCS for 24 h. Then, cells were incubated with 5 mg/mL of MTT for 6 h of incubation. At the end of the incubation time, medium was removed, dimethylsulfoxide (DMSO) was added in each well and absorbance was recorded at 590 nm using the microplate spectrophotometer system EnVision (PerkinElmer, Waltam, USA).
(In general: Formazan colour is commonly taken as a measure of viable cells.)

Data set [1] deals with iPAH P-ECs (human pulmonary endothelial cells). Kind of data set: MTT assay, cell proliferation and survival, iPAH P-ECs. Type of data set: cell-based. Particulars: iPAH EC, 24 h, effect significantly superior compared to ISO-1 (p<0.05); for cell survival: 0% FCS, at 100 μM and 50 μM. The method, then: as §1, §2
The mark [2] stands for this setting: 10 mg/kg daily intraperitoneal, compared to MCT-injected rats treated with vehicle A.
[3] abbreviates: daily intraperitoneal 10 mg/kg/day for 2 weeks, day 21.
The mark [4] stands for this setting: 30 mg/kg oral daily, compared to MCT-injected rats treated with vehicle B, p<0.05.
Where [5] appears, read: oral daily 30 mg/kg/day for 2 weeks.

With `Cc1ccc2oc(=S)n(Cc3cccc(O)c3)c2c1` [Compound 1, 3-(3-hydroxybenzyl)-5-methylbenzo[d]oxazole-2(3H)-thione], the “inhibitory effect against the MIF tautomerase activity (in words)” value on recombinant human MIF (compound 1 compared to benzoxazol-2-one analogue M41, compounds of the invention compared to ISO-1) was “good inhibitory effect”. For the same compound, the inhibition at 0.001 µM at recombinant human MIF amounted to 41%. Also, in the data set with MCT-injected rats (setting [2]), the “mean pulmonary arterial pressure (mPAP)” value was “substantial reduction in values of mPAP”. Also, the “degree of established PH” value with MCT-injected rats (setting [3]) is recorded as “substantially attenuates the degree of established PH”. The “mPAP, compared to MCT-injected rats treated with ISO-1” value in the data set on MCT-injected rats (same dose, 10 mg/kg, p=0.0855) is recorded as “higher beneficial effects in mPAP”.
As to `COc1ccccc1Cn1c(=S)oc2ccc(C)cc21` [Compound 2, 3-(2-methoxybenzyl)-5-methylbenzo[d]oxazole-2(3H)-thione], the inhibition at 0.001 µM at recombinant human MIF is 36%.
Still for that read-out and setting: then `Cc1ccc2oc(=S)n(Cc3ccccc3)c2c1` [Compound 3, 3-benzyl-5-methylbenzo[d]oxazole-2(3H)-thione], with 35%.
For `Cc1ccc2oc(=S)n(Cc3ccc(F)c(O)c3)c2c1` [Compound 4, 3-(4-fluoro-3-hydroxybenzyl)-5-methylbenzo[d]oxazole-2(3H)-thione], the cell survival entry (with DU-145 cell line; in data set [1]) was “decrease significantly cell survival” throughout. Also, the inhibition at 0.001 µM at recombinant human MIF turned out to be 39%. Besides, the “mean pulmonary arterial pressure (mPAP)” value with MCT-injected rats (setting [4]) was “substantial reduction”. Besides, the “degree of established PH” value in the data set with MCT-injected rats (setting [5]) is on record as “substantially attenuates the degree of established PH”.
Turning to `Oc1cc(Cn2c(=S)oc3ccc(C(F)(F)F)cc32)ccc1F` [Compound 5, 3-(4-fluoro-3-hydroxybenzyl)-5-(trifluoromethyl)benzo[d]oxazole-2(3H)-thione], the cell survival entry (in the data set with DU-145 cell line; in data set [1]) was “decrease significantly cell survival” throughout. In addition, the cell proliferation entry in the data set with DU-145 cell line (10% FCS, 50 or 100 μM) is “inhibit significantly cell proliferation”; in data set [1] (10% FCS, 50 or 100 μM), “inhibit significantly cell proliferation”. The inhibition at 0.001 µM on recombinant human MIF was 43%. The “mean pulmonary arterial pressure (mPAP)” value in the data set with MCT-injected rats (setting [4]) is reported as “substantial reduction”. In addition, in the data set with MCT-injected rats (compound 5 at 30 mg/kg oral daily for 2 weeks, sildenafil at 100 mg/kg), the “degree of established PH, compared with treatment by sildenafil” value was “substantially attenuates the degree of established PH”. In addition, in the data set with MCT-injected rats (setting [5]), the “degree of established PH” value is “substantially attenuates the degree of established PH”.
On to `Cc1ccc2oc(=O)n(Cc3cccc(O)c3)c2c1` [Compound M41, reference compound], for which, at recombinant human MIF, the inhibition at 0.001 µM is 29%. Moreover, in the data set on MCT-injected rats (MCT-injected rats, 10 mg/kg/day intraperitoneal), the mortality rate is 5/6. Further, the “degree of established PH” value in the data set with MCT-injected rats (setting [3]) is recorded as “substantially attenuates the degree of established PH”.
As to `COC(=O)CC1CC(c2ccc(O)cc2)=NO1` (stereo not shown) [ISO-1, reference compound], at recombinant human MIF, the inhibition at 0.001 µM was found to be 21%. Besides, the “mean pulmonary arterial pressure (mPAP)” value in the data set with MCT-injected rats (setting [2]) is on record as “substantial reduction in values of mPAP”.

The term inhibition denotes how much of the control response was suppressed.
